Test results from patent US7772425B2, “Vitamin D receptor modulators” (Eli Lilly and Company, priority 2002, dated 2010).
“And” between values parts separate entries of the source, which are not always exact repeats. Equal entries are not always repeated. Where two headings read alike, the source gives them in different places.

Tests used:
rat osteocalcin promoter = assay: OCN (osteocalcin) promoter assay in RG-15 (ROS 17/2.8) cells; type: cell-based; conditions: 48 hr treatment, luciferase
Description: 3. The OCN (Osteocalcin) Promoter Assay
The OCN Promoter Assay is an indicator and marker for osteoporosis. […] Preferred assay results are less than 50 nM.
(3) Materials and Method for The OCN Promoter Assay:
The activation of osteocalcin by VDR ligands was evaluated in a rat osteoblast-like cell line RG-15 (ROS 17/2.8) stably expressing rat osteocalcin promoter fused with luciferase reporter gene. […] Confluent RG-15 cells maintained in DMEM/F-12 medium (3:1) containing 5% FBS, 300 μg/ml G418 and at 37° C. under 5% CO2/95% air atmosphere were trypsinized (0.25% trypsin) and plated into white opaque 96-well cell culture plates (25000 cells/well). After 24 hr, cells (in DMEM/F-12 medium+2% FBS) were treated with various concentrations of compounds, dissolved in DMSO. The final DMSO concentration remained at 0.01% (v/v). After 48 hr treatment, the medium was removed, cells were lysed with 50 μl of lysis buffer (From Luciferase reporter assay system, Roche Diagnostics, Indianapolis, Ind.) and assayed for luciferase activity using the Luciferase Reporter Gene Assay kit from Boehringer Mannheim as per manufacturer's specifications.

[1] = tested on: KERtr cells (Human skin keratinocyte); assay: Keratinocyte proliferation assay; type: cell-based; conditions: BrdU incorporation, read-out: Kera. Prolif. IC50
Description: 5. The Keratinocyte Proliferation Assay
This Assay is indicative for the treatment of psoriasis.
(5) The Keratinocyte Proliferation Assay:
KERtr cells (Human skin keratinocyte transformed with a retrovirus vector, obtained from ATCC) were plated in 96-well flat-bottomed plates (3000 cells/well) in 100 μl keratinocyte serum free medium supplemented with bovine pituitary extract in the absence of EGF (Life Technologies, Rockville, Md.) and incubated at 37° C. for two days. The cells were treated with various concentrations of VDR ligands (ten-fold serial dilution from 10,000 nM to 0.1 nM in triplicate), dissolved in 100 μl keratinocyte serum free medium supplemented with bovine pituitary extract in the absence of EGF and incubated at 37° C. for 72 hr. BrdU (5-bromo-2′-deoxyuridine) incorporation was analyzed as a measure of DNA replication (Cell proliferation ELISA kit, Roche Diagnostics, Indianapolis, Ind.) and absorbance was measured at 405 nm. Potency values (IC50) values were determined as the concentration (nM) of compound that elicited a half-maximal response.

female DBF mice = assay: Mouse hypercalcemia assay; type: in vivo; conditions: orally via gavage for 6 days; serum ionized calcium 6 hours after last dosing
Source text: 4. The Mouse Hypercalcemia Assay
(4) Materials and Method for The Mouse Hypercalcemia Assay: […]

IL-10 = assay: human IL-10 induction assay in PBMCs; type: cell-based; conditions: TPA/PHA treated human PBMCs, IL-10 immunoassay of supernatant
Source text: The evaluation of the novel compounds of the invention for psoriasis is done using the Keratinocyte Proliferation Assay in combination with other assays that measure inhibition of IL-2 production and stimulation of IL-10 production in peripheral blood mononuclear cells (PBMCs).
6. The IL-10 Induction Assay
This is an in vitro efficacy assay for psoriasis, abscess and adhesion. Psoriasis involves both keratinocytes and immune cells. IL-10 is a unique cytokine because it is anti-inflammatory and immunosuppressive. This assay tells us whether a VDRM is able to function as an agonist in PBMCs (primary blood mononuclear cells) or not. A lower EC50 value is desirable in this assay since a compound with a lower EC50 value will be a better agonist in PBMCs.
(6) Materials and Method for human IL-10 Induction Assay:
Isolation of peripheral blood mononuclear cells (PBMCs):
• A. Collect 50 ml of human blood and dilute with media, RPMI-1640. • B. Prepare sterile tubes with ficol. • C. Add diluted blood to tubes. • D. Centrifuge. • E. Discard the top layer and collect the cells from middle layer. • F. Divide all cells into four tubes and add media. • G. Centrifuge. • H. Aspirate off media and resuspend. • I. Collect all cells • J. Centrifuge. at 1200 rpm for 10 minutes. • K. Resuspend in RPMI-1640 with 2% FBS and count cells Stimulation of PBMC: • L. Prepare TPA in DMSO. • M. Dissolve PHA in water. • N. Plate TPA/PHA treated PBMCs in well plates. • O. Incubate. Treatment: • P. Prepare all compound dilutions in plain RPMI-1640 media. • Q. Add diluted compound. • R. Incubate. Sample Collection and assay: • S. Remove all the cells by centrifugation and assay the supernatant for IL-10 by immunoassay. • 1) T. Perform IL-10 assay using anti-human IL-10 antibody coated beads, as described by the manufacturer (Linco Research Inc., St. Charles, Mo.).

[2] = Homo sapiens, Keratinocyte, 72 h

Q: Which results are given for `CCC(CC)(c1ccc(CCC(=O)O)c(C)c1)c1ccc(OCC(=O)C(C)(C)C)c(C)c1` [Ex 6, 3′-[4-(2-oxo-3,3-dimethylbutoxy)-3-methylphenyl]-3′-[4-(2-carboxylethyl)-3-methylphenyl]pentane]?
A: EC50 (rat osteocalcin promoter; Rattus norvegicus, 48 h): 0.3 nM; IC50 [1, 2]: 2 nM; Mouse Hypercal (female DBF mice): 10 µg/kg/day; IC50 (IL-10; Homo sapiens, PBMC): 55 nM

Q: How did the EC50 (rat osteocalcin promoter) turn out when `CCC(CC)(c1ccc(OC(C)C(O)C(C)(C)C)c(C)c1)c1ccc(C(=O)NCC(=O)O)c(C)c1` (single isomer, unassigned) [Ex. 31, 3′-[4-(2-hydroxy-1,3,3-trimethylbutoxy)-3-methylphenyl]-3′-[4-(carboxymethylaminocarbonyl)-3-methylphenyl]pentane] was run?
A: 1 nM

Q: And the IC50 ([1]; 72 hr)?
A: 21 nM

Q: What about the “Mouse Hypercal” value (female DBF mice) of the same molecule?
A: 3000 µg/kg/day

Q: What about the IC50 (IL-10) of the same molecule?
A: 295 nM

Q: For `CCC(CC)(c1ccc(OCC(O)C(C)(C)C)c(C)c1)c1ccc(C(=O)N(C)CC(=O)O)c(C)c1` (single isomer, unassigned) [Ex. 19, [(4-{1-Ethyl-1-[4-(2-hydroxy-3,3-dimethyl-butoxy)-3-methyl-phenyl]-propyl}-2-methyl-benzoyl)-methyl-amino]-acetic acid], which EC50 (rat osteocalcin promoter) is on record?
A: 12 nM and 16 nM

Q: What about the IC50 ([1]; 72 hr) of the same molecule?
A: 82 nM

Q: And the “Mouse Hypercal” value (female DBF mice)?
A: 2000 µg/kg/day

Q: What about the IC50 (IL-10) of the same molecule?
A: 142 nM

Q: For `CCC(CC)(c1ccc(OCC(O)C(C)(C)C)c(C)c1)c1ccc(C(=O)Nc2nnn[nH]2)c(C)c1` (single isomer, unassigned) [Ex. 12a, 3′-[4-(2-hydroxy-3,3-dimethylbutoxy)-3-methylphenyl]-3′-[4-(tetrazol-5-ylaminocarbonyl)-3-methylphenyl]pentane], which EC50 (rat osteocalcin promoter) is on record?
A: 1 nM

Q: What about the IC50 [1, 2] of the same molecule?
A: 4 nM

Q: And the “Mouse Hypercal” value (female DBF mice)?
A: 300 µg/kg/day

Q: What about the IC50 (IL-10; Homo sapiens, PBMC) of the same molecule?
A: 52 nM

Q: How did the IC50 ([1]; 72 hr) turn out when `CCC(CC)(c1ccc(OC(C)C(O)C(C)(C)C)c(C)c1)c1ccc(C(=O)Nc2nnn[nH]2)c(C)c1` (single isomer, unassigned) [Ex. 29, 3′-[4-(2-hydroxy-1,3,3-trimethylbutoxy)-3-methylphenyl]-3′-[4-(tetrazol-5-ylaminocarbonyl)-3-methylphenyl]pentane] was run?
A: 49 nM

Q: And the “Mouse Hypercal” value (female DBF mice)?
A: 3000 µg/kg/day

Q: What about the IC50 (IL-10; Homo sapiens, PBMC) of the same molecule?
A: 153 nM

Q: What does the source list for `CCC(CC)(c1ccc(OCC(O)C(C)(C)C)c(C)c1)c1ccc(C(=O)NCC(=O)O)c(C)c1` (single isomer, unassigned) [Ex. 25A, (4-{1-ethyl-1-[4-(2-hydroxy-3,3-dimethylbutoxy)-3-methylphenyl]-propyl}-2-methylbenzoylamino)acetic acid]?
A: EC50 (rat osteocalcin promoter): 0.4 nM; IC50 ([1]; 72 hr): 1100 nM; Mouse Hypercal (female DBF mice): <300 µg/kg/day; IC50 (IL-10): 40 nM

Q: `CCC(CC)(c1ccc(C(=O)O)cc1)c1ccc(OCC(=O)C(C)(C)C)c(C)c1` [Ex. 21, 4-{1-[4-(3,3-Dimethyl-2-oxo-butoxy)-3-methyl-phenyl]-1-ethyl-propyl}-benzoic acid] was tested. Which IC50 [1, 2] did it give?
A: 223 nM

Q: What about the “Mouse Hypercal” value (female DBF mice) of the same molecule?
A: 6000 µg/kg/day

Q: What about the IC50 (IL-10; Homo sapiens, PBMC) of the same molecule?
A: 1050 nM

Q: What does the source list for `CCC(CC)(c1ccc(OCC(O)C(C)(C)C)c(C)c1)c1ccc(C(=O)N(C)CC(=O)O)c(C)c1` (single isomer, unassigned) [Ex. 18, [(4-{1-ethyl-1-[4-(2-hydroxy-3,3-dimethyl-butoxy)-3-methyl-phenyl]-propyl}-2-methyl-benzoyl)-methyl-amino]-acetic acid]?
A: IC50 ([1]; 72 hr): 1000 nM; Mouse Hypercal (female DBF mice): 1000 µg/kg/day; IC50 (IL-10): 47 nM

Q: What does the source list for `CCC(CC)(c1ccc(OC(C)C(O)C(C)(C)C)c(C)c1)c1ccc(C(=O)O)c(C)c1` (single isomer, unassigned) [Ex. 11, 3′-[4-(2-hydroxy-1,3,3-trimethylbutoxy)-3-methylphenyl]-3′-[4-carboxyl-3-methylphenyl]pentane]?
A: EC50 (rat osteocalcin promoter): 7 nM; IC50 [1, 2]: 308 nM; Mouse Hypercal (female DBF mice): 3000 µg/kg/day; IC50 (IL-10; Homo sapiens, PBMC): 478 nM

Q: For `CCC(CC)(c1ccc(CC2SC(=O)NC2=O)c(C)c1)c1ccc(OCC(O)C(C)(C)C)c(C)c1` (single isomer, unassigned) [Ex. 51, 5-(4-{1-ethyl-1-[4-(2-hydroxy-3,3-dimethyl-butoxy)-3-methyl-phenyl]-propyl}-2-methyl-benzyl)-thiazolidine-2,4-dione], which EC50 (rat osteocalcin promoter) is on record?
A: 1.4 nM

Q: What about the IC50 ([1]; 72 hr) of the same molecule?
A: 26 nM

Q: And the “Mouse Hypercal” value (female DBF mice)?
A: 300 µg/kg/day

Q: And the IC50 (IL-10)?
A: 19 nM

Q: Which results are given for `CCC(CC)(c1ccc(OC(C)C(O)C(C)(C)C)c(C)c1)c1ccc(C(=O)NCC(=O)O)c(C)c1` (single isomer, unassigned) [Ex. 32, 3′-[4-(2-hydroxy-1,3,3-trimethylbutoxy)-3-methylphenyl]-3′-[4-(carboxymethylaminocarbonyl)-3-methylphenyl]pentane]?
A: IC50 ([1]; 72 hr): 1000 nM; Mouse Hypercal (female DBF mice): 1000 µg/kg/day; IC50 (IL-10): 106 nM

Q: Which results are given for `CCC(CC)(c1ccc(OCC(O)C(C)(C)C)c(C)c1)c1ccc(C(=O)NC(C)(C)C(=O)O)c(C)c1` (single isomer, unassigned) [Ex. 20B, 2-(4-{1-Ethyl-1-[4-(2-hydroxy-3,3-dimethyl-butoxy)-3-methyl-phenyl]-propyl}-2-methyl-benzoylamino)-2-methyl-propionic acid]?
A: IC50 [1, 2]: 3 nM; Mouse Hypercal (female DBF mice): 300 µg/kg/day; IC50 (IL-10; Homo sapiens, PBMC): 4 nM

Q: How did the IC50 ([1]; 72 hr) turn out when `CCC(CC)(c1ccc(C(=O)O)cc1)c1ccc(OCC(O)C(C)(C)C)c(C)c1` (single isomer, unassigned) [Ex. 23, 4-{1-Ethyl-1-[4-(2-hydroxy-3,3-dimethylbutoxy)-3-methylphenyl]-propyl}benzoic acid] was run?
A: 40 nM

Q: And the “Mouse Hypercal” value (female DBF mice)?
A: 3000 µg/kg/day

Q: And the IC50 (IL-10)?
A: 27 nM

Q: What does the source list for `CCC(CC)(c1ccc(C(=O)O)cc1)c1ccc(OCC(O)C(C)(C)C)c(C)c1` (single isomer, unassigned) [Ex. 22, 4-{1-Ethyl-1-[4-(2-hydroxy-3,3-dimethylbutoxy)-3-methylphenyl]-propyl}benzoic acid]?
A: IC50 ([1]; 72 hr): 4 nM; Mouse Hypercal (female DBF mice): 1000 µg/kg/day; IC50 (IL-10; Homo sapiens, PBMC): 39 nM

Q: `CCC(CC)(c1ccc(OCC(O)C(C)(C)C)c(C)c1)c1ccc(C(=O)N[C@H](C)C(=O)O)c(C)c1` (stereo partly drawn) [Ex. 34, D-2-(4-{1-ethyl-1-[4-(2-hydroxy-3,3-dimethyl-butoxy)-3-methyl-phenyl]-propyl}-2-methyl-benzoylamino)-propionic acid] was tested. Which IC50 [1, 2] did it give?
A: 25 nM

Q: What about the “Mouse Hypercal” value (female DBF mice) of the same molecule?
A: <300 µg/kg/day

Q: And the IC50 (IL-10; Homo sapiens, PBMC)?
A: 45 nM

Q: With `CCC(CC)(c1ccc(OC(C)C(O)C(C)(C)C)c(C)c1)c1ccc(C(=O)Nc2nnn[nH]2)c(C)c1` (single isomer, unassigned) [Ex. 30, 3′-[4-(2-hydroxy-1,3,3-trimethylbutoxy)-3-methylphenyl]-3′-[4-(tetrazol-5-ylaminocarbonyl)-3-methylphenyl]pentane] as the molecule, how does the IC50 ([1]; 72 hr) read?
A: 20 nM

Q: What about the “Mouse Hypercal” value (female DBF mice) of the same molecule?
A: 1000 µg/kg/day

Q: What about the IC50 (IL-10) of the same molecule?
A: 123 nM

Q: What does the source list for `CCC(CC)(c1ccc(COCC(=O)O)c(C)c1)c1ccc(OCC(O)C(C)(C)C)c(C)c1` (single isomer, unassigned) [Ex. 33, (4-{1-ethyl-1-[4-(2-hydroxy-3,3-dimethyl-butoxy)-3-methyl-phenyl]-propyl}-2-methyl-benzyloxy)-acetic acid]?
A: IC50 [1, 2]: 6 nM; Mouse Hypercal (female DBF mice): <300 µg/kg/day; IC50 (IL-10; Homo sapiens, PBMC): 19 nM
